Laboratory results from US7235263B2, “Processes for controlling microbial organic compound production” (Kimberly-Clark Worldwide, Inc., priority 2001, dated 2007).

Legend:
Format in all cases: cell-based
[1] = test system: Proteus mirabilis (ATCC 29906); test: Ammonia production by facultatively grown Proteus mirabilis in urine:TSB (ammonia probe); conditions: for % Reduction of Ammonia: vs urine:TSB:facultative without mannitol peroxide
Description: Proteus mirabilis was taken from a TSB culture (described in (1) above) and grown under various conditions for use in the Examples. For bacteria to be grown under aerobic conditions, 50 microliters of Proteus mirabilis was taken from a TSB culture prepared as described above and inoculated into a 50 mL volume of a freshly made 9:1 (by volume) pooled adult female urine:TSB mixture into a 250 mL shake flask. This mixture was rotated at 250 rpm at 37° C. overnight to grow the bacteria. For bacteria to be grown under facultative conditions, 10 microliters of Proteus mirabilis was taken from a TSB culture prepared as described above and inoculated into a 10 mL volume of a freshly made 9:1 (by volume) pooled adult female urine:TSB mixture into a 15 mL tube. The tube was loosely fitted with a screw cap, and held stationary at 37° C. overnight to grow the bacteria. For bacteria to be grown under anaerobic conditions, 10 microliters of Proteus mirabilis was taken from a TSB culture prepared as described above and inoculated into a 10 mL volume of a freshly made 9:1 (by volume) pooled adult female urine:TSB mixture into a 15 mL conical tube. The tube was purged with nitrogen and a screw cap tightly closed, and then was held stationary overnight at 37° C. to grow the bacteria.
(§1) Upon completion of the respective incubation periods of the samples, optical density measurements of each sample were taken as described above and ammonia production of the growth solutions was measured using an ammonia combination probe (Beckman, Fullerton, Calif.) by record mV using an Orion pH meter (Orion, Boston, Mass.). Orion ammonia standards (Orion) were used to calibrate the instrument.
In this Example, six different samples were prepared for analysis. The first sample comprised a urine:TSB mixture that was prepared in the same manner as that described in Example 1. […] The tube was loosely fitted with a screw cap, and held stationary at 37° C. overnight to grow the bacteria. […] The fifth sample comprising urine:TSB:Proteus mirabilis (facultatively grown) was prepared in the same manner as that described in Example 1.

E. coli (ATCC 8739) [2] = test: Bacterial yield of facultatively grown E. coli in urine:TSB; conditions: Table 6, facultative E. coli in urine:TSB
Description: Proteus mirabilis (ATCC 29906) were recovered from frozen state by growing the appropriate bacterial coated MicroBank Bead (Pro Lab, Austin Tex.) in 10 mL trypticase soy broth (TSB, Difco, Ann Arbor, Mich.) in a 15 mL sterile loosely tightened screw capped conical tube overnight at 37° C. The tube was held stationary. (E. coli (ATCC 8739), utilized in Example 6 herein, was recovered using the same procedure described herein for Proteus mirabilis). Upon observation of turbidity, the bacterial suspension was checked for purity by isolation plate and Gram stain. Once determined that the isolate was Proteus mirabilis (or E. coli in Example 6), a colony from the isolation plate was transferred to 10 mL of TSB in a 15 mL sterile screw capped conical tube and incubated overnight at 37° C. under facultative conditions. Samples of bacterial suspension resulting from this overnight TSB culture were used to initiate all experiments utilizing Proteus mirabilis bacteria (or E. coli in Example 6).
The four samples were prepared identically to the four samples in Example 5 with the exception that facultatively grown E. coli was utilized as the bacteria in place of the Proteus mirabilis bacteria. The process for growing facultatively grown E. coli is set forth in Example 1.
After incubation, each sample was analyzed for EPIOCULAR viability and bacterial cell count as set forth in Example 1. […]

E. coli (ATCC 8739) [3] = test: Ammonia in urine:TSB with facultatively grown E. coli; conditions: Table 6, facultative E. coli
Description: as §1, with “instrument. The four samples were prepared identically to the four samples in Example 5 with the exception that facultatively grown E. coli was utilized as the bacteria in place of the Proteus mirabilis bacteria. The process for growing facultatively grown E. coli is set forth in Example 1.” for “instrument.”

[4] = Table 4, 5% mannitol peroxide, facultative
[5] = Table 4, 10% mannitol peroxide, facultative
[6] = Table 7, 5% mannitol peroxide, facultative

Substance: mannitol peroxide
- Ammonia/Cell ([1]; Table 3, 5% (w/v) mannitol peroxide, facultative bacteria): 1.6 ppm/CFU E+8
- Ammonia Produced (n = 3) ([1]; Table 3, 5% (w/v) mannitol peroxide, urine:TSB, facultative bacteria): 34.5 ± 12.6 ppm
- Ammonia/Cell ([1]; Table 3, 10% mannitol peroxide, facultative bacteria): 0.01 ppm/CFU E+8
- Ammonia Produced (n = 3) ([1]; Table 3, 10% mannitol peroxide, urine:TSB, facultative bacteria): 13.9 ± 0.3 ppm
- Ammonia (n = 3) [1, 4]: 34.5 ± 12.6 ppm
- Ammonia/Cell [1, 4]: 1.6 ppm/CFU E+8
- % Reduction of Ammonia ([1]; Table 4, 5% mannitol peroxide): 53.6%
- Ammonia (n = 3) [1, 5]: 13.9 ± 0.3 ppm
- Ammonia/Cell [1, 5]: 0.01 ppm/CFU E+8
- % Reduction of Ammonia ([1]; Table 4, 10% mannitol peroxide): 98.5%
- Ammonia Produced (n = 3) [1, 6]: 434.5 ± 7.5 ppm
- Ammonia/Cell [1, 6]: 43.84 ppm/10E8CFU
- Bacterial Yields (E. coli (ATCC 8739) [2]; 5% MP): 2.14E+9 CFU/mL
- Bacterial Yields (E. coli (ATCC 8739) [2]; 10% MP): 4.98E+9 CFU/mL
- Ammonia (E. coli (ATCC 8739) [3]; 5% MP): 12.46 ppm
- Ammonia (E. coli (ATCC 8739) [3]; 10% MP): 14.04 ppm
